Read-outs that look alike come from different tables or passages of the source.
Experiments:
HSP90α [1] = biological target: T1, HSP90α (Homo sapiens, UniProt P07900); experiment: HSP90 N-Terminal Domain Assay Kit, fluorescence polarization competition with FITC-Geldanamycin; type: binding; parameters: purchased BPS Bioscience 50293; conditions: dose-response 1 pM to 10 μM, n = 3, extrapolated with GraphPad Prism; read-out: HSP90α inhibition IC50
Protocol: HSP90‐directed inhibitory activity was assessed employing the HSP90 N‐Terminal Domain Assay Kit (BPS Bioscience) according to the manufacturer's instructions. The fluorescence intensity was measured with a multiplate reader (Victor Nivo‐Perkin Elmer). The IC50 was calculated by analyzing the data using GraphPad Prism 10 software.
HSP90 inhibition activity assay. […] […] […] Data are the percentage of residual enzyme activity relative to the solvent (DMSO). The IC50s were calculated by analyzing the data using GraphPad Prism 10 software.

HSP90α [2] = biological target: T1, HSP90α; experiment: Cellular thermal shift assay (CETSA) on cellular lysates, HSP90α; conditions: 46°C, compound 0.5 mM
Protocol: Cellular Thermal Shift Assay (CETSA). […] Briefly, the cellular extract was lysed in RIPA buffer (10 mM Tris-HCl pH 7.4, 250 mM NaCl, 1% NP40/IGEPAL, 1% DOC, 0.01% SDS, 0.01% Glycerol, supplemented with protease/phosphatase inhibitor, PI/PhI mix and 2 mM DTT) and protein concentration was determined by a BCA kit (Pierce, Life Technologies, TFS, Waltham, MA, USA). Samples were homogenized by 3 cycles of freeze-thawing using liquid nitrogen and centrifuged at 13000 rpm at 4 °C for 30 min to separate the soluble fraction from the debris.
Following the supplier's recommendations, samples were loaded into the proper cartridge (12- 230 kDa Wes/Jess Separation Modules, ProteinSimple, Biotechne, Minneapolis, MN, USA). HSP90α (1:50, MsMAb, Abcam), HSP90β (1:50, RbMAb, Abcam), GRP94 (1:50, RbMAb, Abcam), TRAP1 (1:50, MsMAb, Abcam), α-Tubulin (1:500, MsMAb, Abcam), and β-Actin (1:500, RbMAb, Abcam) were used as primary antibodies. Secondary antibodies were Anti-Mouse Secondary HRP and Anti-Rabbit Secondary HRP (ProteinSimple, Biotechne, Minneapolis, MN, USA).

IMR90 cells [3] = experiment: Dose-response curves on proliferating and replicative senescent IMR90 (Trypan blue cell count); type: cell-based
Description: (§1) IMR90 and WI38 lung fibroblasts were purchased from ECACC‐Merck. Human bone marrow (BM)‐derived mesenchymal stromal cells (MSCs) were purchased from Lonza. Human umbilical vein endothelial cells (HUVECs) are primary cells obtained from a pool of donors purchased from Clonetics (Lonza). Murine ear fibroblasts (MearFs) were obtained from C57BL/6J mice maintained in the INRCA “Specific Pathogen Free” (SPF) animal facility. MCF7 breast cancer cells were purchased from ATCC. For dose–response curves, IMR90 and WI38 were induced to senescence through replicative passages; MSCs, HUVECs, and MearFs senescence was induced with Doxorubicin; MCF7 senescence was induced with 4‐Hydroxytamoxifen (Lee et al. [2014]). The EC50 was calculated using GraphPad Prism 10 software. All treatment specifications are reported in the extended section.
(§2) Cell culture and treatment. IMR90 cells (Homo sapiens, fetal lung, fibroblast) and WI38 cells (Homo sapiens, fetal lung, fibroblast) were purchased from ECACC-Merck (Merck, Darmstadt, Germany) and cultured in MEM medium (Euroclone, Milano, Italy) supplemented with 1% L-Glutamine (Euroclone, Milano, Italy), 1% Penicillin-Streptomycin (Euroclone, Milano, Italy), and 10% Fetal Bovine Serum (FBS, Euroclone, Milano, Italy), at 37°C, 5% CO2. IMR90 cells with a population doubling (PD) from PD15 to PD23 were used; cells were considered incrementally senescent from passage PD19 to passage PD23. WI38 cells were used from PD26 to PD53. Cells were considered incrementally senescent from passage PD49 to passage PD53. For the compounds in vitro screening, IMR90 cells with passages from PD15 to PD23 were tested at increasing concentrations of 0.5 μM, 1 μM, 10 μM, and 25 μM over 24 and 48 h to evaluate the compounds' efficacy and cytotoxicity compared to the Vehicle (DMSO ≤ 0.1%). Cells were counted manually, in triplicate, using Trypan blue reagent (Euroclone) and disposable Bürker chambers. […] K5 dose-response proliferation curves were performed with compound K5 (Molport, SIA, Riga, Latvia) in concentrations 0.1, 0.5, 1, 5, 10, 50, 100, and 200 μM for 48 h. Cells were counted using a Trypan blue reagent and EVAplus cell counter. The EC50s were calculated by analyzing the data using GraphPad Prism 10 software.
MCF7 cell line (ATCC; HTB-22, Homo sapiens, breast cancer) was purchased from ATCC; cells were grown in MEM medium (Corning, New York, USA, #15-010-CVR) supplemented with 10% FBS (Gibco, Invitrogen, Carlsbad, CA, USA, #10270106), 1% glutamine (Corning #25005-CI), 1% penicillin and streptomycin (Corning #30002-CI). Cells were incubated at 37 °C with 5% CO2. Senescent status induction: MCF7 were plated 24 h before the treatment with 4-Hydroxytamoxifen (TAM) 10 μM to induce the senescence described by (Lee et al. 2014). Control cultures were treated with equal volumes of 75% ethanol as the vehicle. The treatment with TAM lasts 96 h, after which the cells have been washed and treated with the senolytic drugs K5 10 µM for another 96 h. The treatment with the senolytic compounds has been renewed at 48 h. Cell mortality and vitality curves after treatment with K5 (10 μM, orange) or Vehicle (DMSO, grey) were monitored using the Incucyte live-cell Analysis system (Sartorius, Goettingen, Germany). The estimated Senolytic index (SI) was calculated as the ratio between the EC50 in proliferating cells and the EC50 in senescent cells, extrapolated using GraphPad Prism 10 software.

IMR90 cells [4] = experiment: In vitro screening of the 14 in silico-selected compounds, surviving cell count, proliferating vs senescent IMR90; type: cell-based, Homo sapiens; conditions: 48 h; for effect on non-senescent IMR90 cells: PD15-PD17, 1 μM; for senolytic activity on senescent IMR90 cells: PD19-PD21, 1 μM
Description: as §1, §2

IMR90 cells [5] = experiment: Dose-response curves on proliferating and replicative senescent IMR90 (Trypan blue cell count); type: cell-based; conditions: proliferating IMR90 (PD14), 48 h
IMR90 cells [6] = experiment: Immunofluorescence of Cytochrome C / mitochondria colocalization in senescent IMR90; type: cell-based, Homo sapiens; conditions: senescent IMR90 (PD21), 48 h, K5 25 μM, Dasatinib 1 μM; Vehicle OR = 0.913
Protocol: (§3) Treated/untreated senescent IMR90 and MCF7 cells were fixed, permeabilized, and stained following suppliers' recommendations. Images were acquired using an Olympus IX83 research inverted microscope (IF) and a phase microscopy Nikon ECLIPSE Ei R (IHC) at 40× MAG.
(§4) Immunofluorescence staining. Treated/untreated IMR90 and MCF7 cells were cultured in LabTek II chamber slides (Nunc, Biosigma). At the final time point, cells were stained with 500 nM MitoTracker Orange (Thermo Fisher Scientific) for 30 min at 37°C and then fixed in 4% PFA (Merck) for 10 min, RT, and permeabilized with 0.1% Triton solution (Merck) for 30 min at RT. Samples were blocked in 5% BSA for 90 min, incubated overnight at 4°C with primary antibody against Cytochrome C (1:50, RbMAb, Abcam), and 1h at RT with secondary antibody Alexa Fluor 488 goat anti-Rb (1:200, Thermo Fisher Scientific). Nuclei were stained with DAPI (Cell Signaling) for 10 min at RT, and ProLong Glass Antifade Mountant (Thermo Fisher Scientific) was used to seal coverslips. Images were acquired using an Olympus IX83 research inverted microscope at 40X magnifications.

MCF7 cells = experiment: Immunofluorescence of Cytochrome C / mitochondria colocalization in senescent MCF7; type: cell-based, Homo sapiens; conditions: MCF7, TAM 10 µM 96 h, then 72 h K5 10 µM or Dasatinib 1 µM
Protocol: as §3, §4

Cn1c(=O)c2c(ncn2C)n(C)c1=O [Caffeine, reference compound]
IC50 (HSP90α [1]): > 300000 nM | interaction / stabilization of HSP90α in CETSA (HSP90α [2]): does not interact with the protein

CO[C@H]1/C=C\C=C(/C)C(=O)NC2=CC(=O)C(NCCN(C)C)=C(C[C@@H](C)C[C@H](OC)[C@H](O)[C@@H](C)/C=C(\C)[C@@H]1OC(N)=O)C2=O [Compound 17-DMAG]
Senolytic evidence (no, partly/yes) (IMR90 cells [3]; IMR90, Replicative/passages): Yes | EC50 (IMR90 cells [3]; IMR90, Replicative/passages, read-out: EC50 senescent cells): 85 nM | EC50 (IMR90 cells [3]; IMR90, read-out: EC50 proliferating cells): 780 nM | effect on non-senescent IMR90 cells (IMR90 cells [4]): cytotoxic effects also visible in non | EC50 (IMR90 cells [5]): 785 nM

Cc1[nH]nc(-c2ccc(O)cc2O)c1Oc1ccc(F)cc1 [Compound B2, 4-[4-(4-fluorophenoxy)-5-methyl-1H-pyrazol-3-yl]benzene-1,3-diol]
senolytic activity on senescent IMR90 cells (IMR90 cells [4]): evident senolytic activity

O=S(=O)(NCc1ccc(-c2ccc(F)cc2F)o1)c1ccccc1 [Compound C2, N-{[5-(2,4-difluorophenyl)furan-2-yl]methyl}benzenesulfonamide]
senolytic activity on senescent IMR90 cells (IMR90 cells [4]): evident senolytic activity

Cc1nc(Nc2ncc(C(=O)Nc3c(C)cccc3Cl)s2)cc(N2CCN(CCO)CC2)n1 [Dasatinib, reference compound]
Cytochrome C / mitochondria colocalization, Overlap R (OR) (IMR90 cells [6]): 0.639 | Cytochrome C / mitochondria colocalization, Overlap R (OR) (MCF7 cells; TAM + Vehicle OR = 0.978): 0.956 | Cytochrome C / mitochondria colocalization, Pearson's Rr (PRr) (MCF7 cells; TAM + Vehicle PRr = 0.961): 0.928

CC(C)c1cc(-c2n[nH]c(=O)n2-c2ccc3c(ccn3C)c2)c(O)cc1O [Ganetespib]
EC50 (IMR90 cells [3]; Homo sapiens, IMR-90, IMR90, Replicative/passages, read-out: EC50 senescent cells): 87 nM | EC50 (IMR90 cells [3]; Homo sapiens, IMR-90, IMR90, read-out: EC50 proliferating cells): 1000 nM | Senolytic evidence (no, partly/yes) (IMR90 cells [3]; IMR90, Replicative/passages): Yes | effect on non-senescent IMR90 cells (IMR90 cells [4]): cytotoxic effects also visible in non | EC50 (IMR90 cells [5]; Homo sapiens, IMR-90): 1040 nM

— paper PMC12266748, “A Xanthine Derivative With Novel Heat Shock Protein 90‐Alpha Inhibitory and Senolytic Properties” (Aging Cell, 2025)
